From patent US20030068789A1, “Method for cultivating microorganism” (priority 2000, published 2003)

Test system: microorganism having nitrile hydratase activity
Assay: Growth inhibition caused by cobalt ions in cultivating a microorganism
Type: cell-based
Conditions: sugar present in culture solution as carbon source
From the text: The present inventors have conducted intensive studies on culture conditions to industrially obtain microbial cells having nitrile hydratase activity within a short period and at a high yield. […] Thus, the present invention has been accomplished.
As a result, it is possible to obtain microbial cells having nitrile hydratase enzyme activity within a short period and at a high yield

Row | Structure (SMILES) | growth inhibition caused by cobalt ions
1 | O=C(CO)[C@@H](O)[C@H](O)[C@H](O)CO [fructose] | can reduce growth inhibition caused by cobalt ions
2 | OC[C@@H](O)[C@@H](O)[C@H](O)[C@H](O)CO [mannitol] | can reduce growth inhibition caused by cobalt ions
